# pIC50: −log10 of the molar value. Active and inactive are the calls of the source.
# How the values were obtained:
# [1] = molecular target: T1, Calpain-2 catalytic subunit (Sus scrofa, UniProt P43367); assay: m-calpain protease blockers, concentration series – biochemical, fluorogenic peptide substrate, dose response (AID 1420); type: functional
# T1 sequence (P43367 whole entry): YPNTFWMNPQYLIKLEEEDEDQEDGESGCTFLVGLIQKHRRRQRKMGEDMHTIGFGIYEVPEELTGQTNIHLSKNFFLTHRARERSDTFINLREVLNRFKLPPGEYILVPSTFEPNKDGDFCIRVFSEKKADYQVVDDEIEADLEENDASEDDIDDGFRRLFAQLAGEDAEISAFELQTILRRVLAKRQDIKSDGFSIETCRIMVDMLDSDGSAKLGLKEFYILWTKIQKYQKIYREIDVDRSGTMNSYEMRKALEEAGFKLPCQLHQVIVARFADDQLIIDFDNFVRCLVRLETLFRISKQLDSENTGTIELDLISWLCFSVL
# Protein Rev = Protein Rev (Human immunodeficiency virus type 1 group M subtype B (isolate HXB2)(HIV-1), UniProt P04618); assay: blockers of HIV Rev/RRE RNA complex – biochemical, fluorescence polarization, HIV-1, dose response (AID 434976); parameters: species or system Human immunodeficiency virus 1
# [2] = tested on: Streptococcus sp. 'group A'; assay: Streptococcus pyogenes SK(-)GAS viability under kanamycin – luminescence, BacTiterGlo, confirmation, counter-screen for streptokinase expression inhibitor project, dose response (AID 1900); type: functional, organism-based
# [3] = reduction of Shn3 3'UTR-driven luciferase in osteoblasts – cell-based, Clone20 osteoblasts, firefly luciferase, cherry-picked, dose response (AID 624132); type: functional;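 note: firefly luciferase luminescence from reporter carrying the Shn3 3'UTR in osteoblasts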
# [4] = non-specific 3'UTR reporter inhibition in Clone20-Shn3RL – cell-based, Renilla luciferase, cherry-picked, counter-screen for Shn3 inhibitor project, dose response (AID 624133); type: functional
# [5] = blockers of HIV-1 ZM109 envelope-driven cell-cell fusion – HeLa effector, CEM target cells, luciferase, cherry-pick, dose response (AID 652058); type: functional, cell-based;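 note: luciferase signal from HIV-1 Env mediated cell-cell fusion of effector and target cells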
# [6] = HIV-1 AD8 envelope cell-cell fusion blockers – cherry-pick, dose response (AID 652062); type: functional, cell-based;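 note: luciferase signal from cell-cell fusion driven by HIV-1 clade B AD8 Env; potency is for inhibitors of fusion seen as a drop in luminescence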
# [7] = molecular target: T2, 1-phosphatidylinositol 4,5-bisphosphate phosphodiesterase gamma-1 (Homo sapiens, UniProt P19174); assay: Counterscreen for inhibitors of phospholipase C isozymes (PLC-B3): Fluorescence-based biochemical high throughput dose response assay to identify inhibitors of phospholipase C isozymes (PLC-gamma1).
# T2 sequence (P19174 whole entry): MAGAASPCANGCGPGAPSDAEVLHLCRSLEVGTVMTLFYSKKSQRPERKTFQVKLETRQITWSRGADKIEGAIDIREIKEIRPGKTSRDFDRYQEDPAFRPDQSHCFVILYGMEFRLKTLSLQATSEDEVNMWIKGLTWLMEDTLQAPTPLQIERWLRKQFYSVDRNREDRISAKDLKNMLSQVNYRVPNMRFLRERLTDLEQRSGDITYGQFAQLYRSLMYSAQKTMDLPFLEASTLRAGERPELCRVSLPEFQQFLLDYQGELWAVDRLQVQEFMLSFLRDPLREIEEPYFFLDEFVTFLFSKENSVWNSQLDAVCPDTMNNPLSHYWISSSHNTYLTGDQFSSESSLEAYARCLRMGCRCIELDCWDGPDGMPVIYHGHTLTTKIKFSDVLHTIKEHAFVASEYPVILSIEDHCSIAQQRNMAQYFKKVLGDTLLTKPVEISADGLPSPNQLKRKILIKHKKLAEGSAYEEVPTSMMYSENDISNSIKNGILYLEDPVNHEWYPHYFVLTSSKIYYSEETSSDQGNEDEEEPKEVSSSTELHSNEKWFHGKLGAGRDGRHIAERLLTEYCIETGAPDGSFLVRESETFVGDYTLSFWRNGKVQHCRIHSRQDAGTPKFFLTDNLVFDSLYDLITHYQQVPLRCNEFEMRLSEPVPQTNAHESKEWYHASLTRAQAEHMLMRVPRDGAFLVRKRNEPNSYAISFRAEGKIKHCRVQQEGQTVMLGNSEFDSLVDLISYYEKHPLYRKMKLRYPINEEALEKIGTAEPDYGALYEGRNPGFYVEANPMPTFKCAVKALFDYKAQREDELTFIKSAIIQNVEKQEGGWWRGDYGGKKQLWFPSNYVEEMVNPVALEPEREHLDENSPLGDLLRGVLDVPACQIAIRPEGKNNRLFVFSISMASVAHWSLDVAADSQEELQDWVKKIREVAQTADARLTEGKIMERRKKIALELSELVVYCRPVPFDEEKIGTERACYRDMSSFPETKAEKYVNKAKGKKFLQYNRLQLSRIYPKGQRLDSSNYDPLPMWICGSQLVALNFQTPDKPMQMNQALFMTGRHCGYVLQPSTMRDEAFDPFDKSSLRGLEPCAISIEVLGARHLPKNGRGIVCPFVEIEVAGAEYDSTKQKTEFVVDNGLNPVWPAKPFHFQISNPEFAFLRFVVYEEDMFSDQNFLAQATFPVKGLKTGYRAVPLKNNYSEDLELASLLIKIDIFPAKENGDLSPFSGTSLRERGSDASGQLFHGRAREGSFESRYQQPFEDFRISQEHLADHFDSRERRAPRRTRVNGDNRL
# [8] = molecular target: Serine/threonine-protein kinase N2 (Homo sapiens, UniProt Q16513); type: functional
# Misshapen-like kinase 1 = Misshapen-like kinase 1 (Homo sapiens, UniProt Q8N4C8); type: functional;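 note: kinome panel screen with MINK as the panel member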
# [9] = molecular target: Vascular endothelial growth factor receptor 3 (Homo sapiens, UniProt P35916); type: functional;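 note: value from a kinome-wide profiling panel, with FLT4 as the panel member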
# [10] = molecular target: Protein kinase C theta type (Homo sapiens, UniProt Q04759); assay: Navigating the Kinome. Panel member name: PRKCQ; type: functional
# [11] = molecular target: Glycogen synthase kinase-3 beta (Homo sapiens, UniProt P49841); type: functional;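 note: value comes from a broad kinome profiling panel, with GSK3B as the panel member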
# [12] = molecular target: Kappa-type opioid receptor (Homo sapiens, UniProt P41145); type: functional
# [13] = molecular target: Cyclin-dependent kinase 7 (Homo sapiens, UniProt P50613); type: functional;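 note: value comes from a kinome-wide kinase profiling panel in which CDK7 is one member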
# Cyclin-dependent kinase 7, sequence (P50613 whole entry): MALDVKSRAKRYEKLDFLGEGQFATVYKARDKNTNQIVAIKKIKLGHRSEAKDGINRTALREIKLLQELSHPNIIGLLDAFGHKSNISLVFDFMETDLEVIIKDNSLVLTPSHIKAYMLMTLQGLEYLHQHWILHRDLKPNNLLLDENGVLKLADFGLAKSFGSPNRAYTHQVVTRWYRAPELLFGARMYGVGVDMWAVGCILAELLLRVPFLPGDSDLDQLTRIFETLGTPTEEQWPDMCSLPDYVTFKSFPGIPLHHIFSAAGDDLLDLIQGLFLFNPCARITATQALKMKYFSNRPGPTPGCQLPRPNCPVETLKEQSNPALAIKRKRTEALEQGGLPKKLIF
# Serine/threonine-protein kinase N2, sequence (Q16513 whole entry): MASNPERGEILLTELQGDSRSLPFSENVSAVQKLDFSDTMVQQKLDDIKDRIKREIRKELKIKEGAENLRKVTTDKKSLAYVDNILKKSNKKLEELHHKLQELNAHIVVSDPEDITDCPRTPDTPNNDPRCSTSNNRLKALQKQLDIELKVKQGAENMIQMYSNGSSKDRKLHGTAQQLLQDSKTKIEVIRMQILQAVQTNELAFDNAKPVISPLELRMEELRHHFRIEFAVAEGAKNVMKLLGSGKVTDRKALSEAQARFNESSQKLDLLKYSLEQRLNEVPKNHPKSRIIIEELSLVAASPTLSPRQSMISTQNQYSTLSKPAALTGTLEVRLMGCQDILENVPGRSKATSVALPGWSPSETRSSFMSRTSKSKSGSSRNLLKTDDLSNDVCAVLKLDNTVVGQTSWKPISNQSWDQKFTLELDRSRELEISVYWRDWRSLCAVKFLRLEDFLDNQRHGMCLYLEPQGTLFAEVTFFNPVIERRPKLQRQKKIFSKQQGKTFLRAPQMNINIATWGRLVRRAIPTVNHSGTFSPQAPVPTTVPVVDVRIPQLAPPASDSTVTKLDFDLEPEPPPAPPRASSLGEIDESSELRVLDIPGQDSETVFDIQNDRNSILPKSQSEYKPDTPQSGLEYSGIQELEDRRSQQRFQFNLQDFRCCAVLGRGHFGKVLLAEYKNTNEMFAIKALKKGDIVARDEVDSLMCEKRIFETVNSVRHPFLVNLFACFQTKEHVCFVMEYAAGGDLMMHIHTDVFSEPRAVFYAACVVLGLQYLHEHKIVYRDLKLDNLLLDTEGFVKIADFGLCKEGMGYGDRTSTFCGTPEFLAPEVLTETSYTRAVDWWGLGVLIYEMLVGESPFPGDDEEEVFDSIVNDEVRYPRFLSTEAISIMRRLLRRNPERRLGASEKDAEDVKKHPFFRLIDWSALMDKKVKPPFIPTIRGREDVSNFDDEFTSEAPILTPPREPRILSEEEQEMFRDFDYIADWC
# Protein Rev, sequence (P04618 whole entry): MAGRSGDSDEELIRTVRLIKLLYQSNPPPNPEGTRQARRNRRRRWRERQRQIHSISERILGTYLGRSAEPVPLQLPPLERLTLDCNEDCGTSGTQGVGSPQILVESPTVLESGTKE
# Vascular endothelial growth factor receptor 3, sequence (P35916 whole entry): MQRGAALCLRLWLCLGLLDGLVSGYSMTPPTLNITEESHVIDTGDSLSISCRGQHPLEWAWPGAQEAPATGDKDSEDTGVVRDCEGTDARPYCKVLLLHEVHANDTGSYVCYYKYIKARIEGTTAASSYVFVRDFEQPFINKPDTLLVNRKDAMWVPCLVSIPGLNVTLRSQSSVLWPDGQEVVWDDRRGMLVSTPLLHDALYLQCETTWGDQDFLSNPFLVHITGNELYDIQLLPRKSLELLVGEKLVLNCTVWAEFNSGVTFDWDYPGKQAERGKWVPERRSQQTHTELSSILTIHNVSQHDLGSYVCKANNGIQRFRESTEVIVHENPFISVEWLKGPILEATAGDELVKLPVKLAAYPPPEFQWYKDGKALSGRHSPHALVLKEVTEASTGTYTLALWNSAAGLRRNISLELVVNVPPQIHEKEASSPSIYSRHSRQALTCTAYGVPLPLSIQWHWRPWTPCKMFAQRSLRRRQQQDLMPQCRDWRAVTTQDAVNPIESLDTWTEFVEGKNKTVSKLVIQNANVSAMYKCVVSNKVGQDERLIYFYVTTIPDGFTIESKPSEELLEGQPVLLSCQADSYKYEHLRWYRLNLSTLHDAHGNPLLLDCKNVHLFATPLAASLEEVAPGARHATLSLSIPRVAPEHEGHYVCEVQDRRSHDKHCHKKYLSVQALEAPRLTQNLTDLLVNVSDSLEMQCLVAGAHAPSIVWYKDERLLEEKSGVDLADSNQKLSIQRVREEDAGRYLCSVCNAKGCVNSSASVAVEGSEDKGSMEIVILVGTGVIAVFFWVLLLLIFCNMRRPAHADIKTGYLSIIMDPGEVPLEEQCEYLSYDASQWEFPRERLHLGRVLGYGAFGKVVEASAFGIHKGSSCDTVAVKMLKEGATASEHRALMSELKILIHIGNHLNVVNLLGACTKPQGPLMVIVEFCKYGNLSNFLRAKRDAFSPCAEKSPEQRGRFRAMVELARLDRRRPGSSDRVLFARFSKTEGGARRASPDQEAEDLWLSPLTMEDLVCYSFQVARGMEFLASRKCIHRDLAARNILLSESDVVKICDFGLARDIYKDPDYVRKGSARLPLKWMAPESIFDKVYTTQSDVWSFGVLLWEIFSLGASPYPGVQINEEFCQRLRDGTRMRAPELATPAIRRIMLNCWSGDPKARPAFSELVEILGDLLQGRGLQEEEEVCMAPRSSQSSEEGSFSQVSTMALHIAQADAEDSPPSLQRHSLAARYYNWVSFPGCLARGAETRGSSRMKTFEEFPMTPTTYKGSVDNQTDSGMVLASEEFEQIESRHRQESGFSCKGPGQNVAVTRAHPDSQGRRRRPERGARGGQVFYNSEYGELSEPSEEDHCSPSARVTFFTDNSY
# Protein kinase C theta type, sequence (Q04759 whole entry): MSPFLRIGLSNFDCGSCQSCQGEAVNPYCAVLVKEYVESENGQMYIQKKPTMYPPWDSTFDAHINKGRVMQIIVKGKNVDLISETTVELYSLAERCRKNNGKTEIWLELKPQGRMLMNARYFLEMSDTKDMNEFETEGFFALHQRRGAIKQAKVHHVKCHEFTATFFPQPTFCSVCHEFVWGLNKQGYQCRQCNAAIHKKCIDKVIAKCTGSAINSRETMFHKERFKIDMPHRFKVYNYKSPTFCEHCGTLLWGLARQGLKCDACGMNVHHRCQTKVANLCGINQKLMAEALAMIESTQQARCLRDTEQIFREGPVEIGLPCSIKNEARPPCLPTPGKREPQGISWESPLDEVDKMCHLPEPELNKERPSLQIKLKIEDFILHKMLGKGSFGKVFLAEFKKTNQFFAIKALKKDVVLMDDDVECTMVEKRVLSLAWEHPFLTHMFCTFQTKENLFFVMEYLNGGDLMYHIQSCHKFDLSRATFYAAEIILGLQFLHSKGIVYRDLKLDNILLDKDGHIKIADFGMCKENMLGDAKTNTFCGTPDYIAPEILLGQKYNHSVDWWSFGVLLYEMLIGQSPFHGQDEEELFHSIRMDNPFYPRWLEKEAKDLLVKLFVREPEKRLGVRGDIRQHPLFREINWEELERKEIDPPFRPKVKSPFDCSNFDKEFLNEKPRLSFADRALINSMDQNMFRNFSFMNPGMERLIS
# Kappa-type opioid receptor, sequence (P41145 whole entry): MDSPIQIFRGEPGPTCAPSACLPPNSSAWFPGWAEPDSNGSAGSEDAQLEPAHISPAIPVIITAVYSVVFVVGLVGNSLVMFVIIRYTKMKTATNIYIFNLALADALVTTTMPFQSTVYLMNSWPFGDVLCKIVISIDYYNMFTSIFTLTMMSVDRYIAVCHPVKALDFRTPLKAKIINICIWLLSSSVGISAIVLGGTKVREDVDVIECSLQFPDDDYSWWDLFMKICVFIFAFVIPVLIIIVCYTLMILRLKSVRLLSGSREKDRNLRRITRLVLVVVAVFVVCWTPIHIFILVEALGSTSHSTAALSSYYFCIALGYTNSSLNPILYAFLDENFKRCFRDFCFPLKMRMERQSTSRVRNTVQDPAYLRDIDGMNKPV
# Glycogen synthase kinase-3 beta, sequence (P49841 whole entry): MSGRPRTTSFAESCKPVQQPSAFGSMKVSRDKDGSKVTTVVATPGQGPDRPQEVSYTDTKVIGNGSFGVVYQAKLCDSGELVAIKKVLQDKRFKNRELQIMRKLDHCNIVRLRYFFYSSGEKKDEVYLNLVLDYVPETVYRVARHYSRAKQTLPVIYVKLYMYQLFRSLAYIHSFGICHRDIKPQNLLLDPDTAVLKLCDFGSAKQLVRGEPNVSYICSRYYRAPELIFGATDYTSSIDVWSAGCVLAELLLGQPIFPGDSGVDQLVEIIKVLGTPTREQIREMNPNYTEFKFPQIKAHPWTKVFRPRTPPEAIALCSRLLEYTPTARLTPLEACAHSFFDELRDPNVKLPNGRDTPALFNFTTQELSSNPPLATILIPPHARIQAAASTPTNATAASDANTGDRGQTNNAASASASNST
structure (smiles),measurement,setting,value
O=C(O)c1ccc(NC2=C(Cl)C(=O)c3ccccc3C2=O)cc1,IC50,[1],10.8 µM (not active)
O=C(O)c1ccc2c3c(ncnc13)-c1ccccc1C2=O,IC50,Protein Rev,9.78 µM (active)
same,EC50,[2],6.43 µM (active)
CCOC(=O)c1c2c(n(Cc3ccccc3)c1C)C(=O)C(=O)c1ccccc1-2,AC50,[3],2.3 µM (active)
same,AC50,[4],5.03 µM (active)
same,AC50,[5],10.9 µM (active)
same,AC50,[6],10.6 µM (active)
same,IC50,[7],28.3 µM (inactive)
Cc1ccc2nccc(NC(=O)Nc3cccc(C(F)(F)F)n3)c2c1,Ki,[8],> 7.94 µM (inactive)
same,Ki,Misshapen-like kinase 1,0.2 µM (active)
same,Ki,[9],1 µM (active)
Cc1nn(C)c2sc3c(=O)[nH]cnc3c12,Ki,[10],79.4 µM (active)
same,Ki,[11],39.8 µM (active)
Cc1c(/N=C2\C=CC(=O)c3ccccc32)c(=O)n(-c2ccccc2)n1C,pIC50,[12],< 4.49
COc1cc2c(cc1F)C(c1ccccc1Cl)=Nc1c(n[nH]c1C)N2 [RG-1530],Ki,[13],0.631 µM (active)

# From ChEMBL document CHEMBL1201862, “PubChem BioAssay data set” (2004)
